US20070166547A1, “Use of a layer consisting of hydrophobic linear, or two-dimensional polycyclic aromatics as a barrier layer or an encapsulation and electric components constructed with a layer of this type and comprising organic polymers” (priority 2003, published 2007)

Columns and labels:
plasma hemostasis = experiment: Prothrombin time after intravenous administration; format: in vivo, rabbit
Method: The investigations were performed on 72 rabbits of the “Chinchilla” breed with a mass of 2.5±0.3 kg, who were administered which solutions of compounds 2, 15, 21, 37 in doses of 15, 30 and 60 mg/kg intravenously. The experiments included the thrombin-test (series No. 7300) and the coagulability-test (series No. 5000) purchased from the scientific-and-production association (SPA) “Renam”, thromboplastin (series No. 240600) and calcium chloride purchased from the SPA “MedioLab”
The static parameters of the blood and plasma coagulation (partial activated thromboplastin time, thrombin time, maximum coagulation activity (test for auto coagulation) were determined using the Behnk Electronic coagulometer (Germany). The operating principle of this instrument is based on the fact that the formed blood clot breaks the contacts of the pulse counter in the flask-pin circuit, said pin permanently oscillating in a vertical plane. The moment of formation of the clot is registered by stopping the stop watch hand.
The measurements were effected at a constant temperature of 37° C. maintained by a temperature control unit.
The method of its determination is based on estimation of the coagulation of citrate or oxalic blood plasma, when it is mixed with thromboplastin and a calcium chloride solution. Since under these conditions the time of formation of the clot depends on the content of II, VII, IX and X factors in the investigated plasma sample, now the test is called “thromboplastin time by Quick” or “activity thromboplastin complex”.
Compounds 2, 15, 21, 37 according to the invention at a concentration of 15, 30 and 60 mg/kg were administered to the above experimental animals intravenously and their blood was taken off after 15, 30, 60 and 120 minutes after the administration.
Citrate blood containing 1 part of citrate per 9 parts of native blood was centrifuged at 3000 rev/min for 10 minutes to obtain plasma deprived of thrombocytes.
Added into a test tube in a water bath were 0.1 ml of plasma and 0.1 ml of a thromboplastin solution. After 60 seconds, 0.1 ml of 0.277% solution of calcium chloride was added and the time of reaction T1 in seconds was registered.

[1] = system: metabolism of nitrogen oxide; experiment: Morphine abstinence model: nitrites and nitrates NOX− in blood plasma, liver and brain; format: in vivo, rats Wistar
Method: The experiments were carried out on rats in series of 7 animals on each compound according to the invention. Non-morphinized animal with not administered with compounds according to the invention were used as a control group. […] Then the rats were decapitated, the blood from somnolent arteries was collected in test tubes with solution EDTA as an anticoagulant, centrifuged at 1500 g for 15 minutes at 4° C.
To estimate the intensity of metabolism of nitrogen oxide in rats, quantitative determination of stable metabolites of nitrogen oxide—nitrites and nitrates NOX^− in the blood plasma, supernatanates of the liver and thymus gland, a study was conducted by a spectrometric method, and in the brain supernatanates by a […] method.
The spectrometric method is based the reaction of nitrites with the Griss reagent (a mixture of 2% solution of sulfanilamide and 0.2% N-(1-naphthyl)ethylene diamine. At the first step the nitrite reacts with sulfanilamide with formation of diazonium salt, and then with the second component to form azo dye with an adsorption maximum at 540 nm. For reduction of nitrates into nitrites, a fermentative method was used with bacterial reductase nitrate (Grisham M. B. et al., 1995). The samples of plasma and supernatant of the liver deproteinizated at 100° C. for 5 minutes incubated for 30 minutes at 37° C. in 50.0 mM of HEPES pH 7.4 in the presence of 0.2 unit/ml of Aspergillus reductase nitrate, 5.0 mkM of FAD and 0.1 mM of NAD-Ph. At the end of the reaction lactate dehydrogenase and pyruvate were added for isolation of NAD-Ph interfering with the Griss reaction. Then the Griss reagent was added and after 10-minute incubation the light absorption of the samples was measured at 540 nm. To amount of NOX^− was calculated using sodium nitrate as a standard.
The fluorometric method is based on calculation of the nitrite level by the intensity fluorescence of 2,3-diaminonaphthotriazole, a product of reaction of 2,3-diaminonaphthalene (DAN) and nitrite in an acidic medium (Misko T. R., Schilling R. J., Salvemini D. et al. “A fluorometric assay for the measurement of nitrite of biological samples”. Anal. Biochem., 1993, v. 214, p. 11-16). The brain supernatants deproteinizated at 100° C. were placed in a nitrite regenerating system containing 0.125 unit/ml of nitrate reductases, 25 mkM NADPh and 25 mkM FAD prepared in a 20-mM Tris-HCl buffer with pH 7.6 and incubated for 30 minutes at 37° C. The lactatedehydrogenase/pyruvate system was used for oxidation of the NADPh. Then 316 mkM of the DAN solution in 0.62 M of hydrochloric acids were added and the mixture was incubated for 10 minutes in darkness.
280 mM of NaOH were added for stabilization of the fluorescence of the formed 2,3-diaminonaphthotriazole. The fluorescence intensity was measured in the spectrofluorimeter Hitachi F-3000 at a wavelength of excitation of 365 nm and an emission of 405 nm. The concentration of NOX^− in the brain was calculated by means of a standard solution of sodium nitrate.

thymus = experiment: Morphine abstinence model: thymus condition; format: in vivo, rats; conditions: morphinized rats then compound
Method: The effect of the compounds according to the invention on the condition of the thymus of the rats was also investigated: a control group, an experimental group of morphinized animals and an experimental group of animals were first morphinized and then injected with the compounds according to the invention. The experiment was carried out similarly to that described above.

[2] = compound alone 20.0 mg/kg intramuscularly
[3] = morphinized rats then compound 20.0 mg/kg intramuscularly

SMILES: O=c1[nH][nH]c(=O)c2c(Br)ncnc12.[K] [Compound 37, potassium salt of 4-bromine-pyrimido[4,5-D]-6H-pyridazine-5,8-dione]
- T, s After 120 minutes (prothrombin time) (plasma hemostasis; dose 15.0 mg/kg intravenously): 11.8 ± 0.1 s
- T, s after 15 minutes (prothrombin time) (plasma hemostasis; dose 15.0 mg/kg intravenously): 11.6 ± 0.2 s
- T, s after 30 minutes (prothrombin time) (plasma hemostasis; dose 15.0 mg/kg intravenously): 11.6 ± 0.1 s
- T, s after 60 minutes (prothrombin time) (plasma hemostasis; dose 15.0 mg/kg intravenously): 11.5 ± 0.2 s
- T, s After 120 minutes (prothrombin time) (plasma hemostasis; dose 30.0 mg/kg intravenously): 11.1 ± 0.1 s
- T, s after 15 minutes (prothrombin time) (plasma hemostasis; dose 30.0 mg/kg intravenously): 11.3 ± 0.1 s
- T, s after 30 minutes (prothrombin time) (plasma hemostasis; dose 30.0 mg/kg intravenously): 11.2 ± 0.2 s
- T, s after 60 minutes (prothrombin time) (plasma hemostasis; dose 30.0 mg/kg intravenously): 11.4 ± 0.1 s
- T, s After 120 minutes (prothrombin time) (plasma hemostasis; dose 60.0 mg/kg intravenously): 12.0 ± 0.1 s
- T, s after 15 minutes (prothrombin time) (plasma hemostasis; dose 60.0 mg/kg intravenously): 12.1 ± 0.1 s
- T, s after 30 minutes (prothrombin time) (plasma hemostasis; dose 60.0 mg/kg intravenously): 12.0 ± 0.1 s
- T, s after 60 minutes (prothrombin time) (plasma hemostasis; dose 60.0 mg/kg intravenously): 12.1 ± 0.2 s
- effect on the prothrombin time index (overall) (plasma hemostasis; doses of 15.0, 30.0, 60.0 mg/kg): have no effect on the prothrombin time index
- Nitrites in blood plasma, Control + Compound [1, 2]: 16.13 ± 1.80 mkmol/ml
- Nitrites in brain, Cortex of cerebrum, Control + Compound [1, 2]: 4.36 ± 0.24 nmol/mg of protein
- Nitrites in brain, Hypothalamus, Control + Compound [1, 2]: 6.79 ± 0.92 nmol/mg of protein
- Nitrites in brain, Mesencephalon, Control + Compound [1, 2]: 6.84 ± 0.56 nmol/mg of protein
- Nitrites in liver, Control + Compound [1, 2]: 0.262 ± 0.018 nmol/mg of protein
- Nitrites in blood plasma, Control + Morphine + compound [1, 3]: 15.33 ± 0.87 mkmol/ml
- Nitrites in brain, Cortex of cerebrum, Control + Morphine + compound [1, 3]: 4.77 ± 0.28 nmol/mg of protein
- Nitrites in brain, Hypothalamus, Control + Morphine + compound [1, 3]: 6.52 ± 0.83 nmol/mg of protein
- Nitrites in brain, Mesencephalon, Control + Morphine + compound [1, 3]: 5.63 ± 0.37 nmol/mg of protein
- Nitrites in liver, Control + Morphine + compound [1, 3]: 0.274 ± 0.01 nmol/mg of protein
- Nitrites, thymus Supernatant, Administration of morphine and compound (thymus): 0.387 ± 0.01 nmol/mg of protein
- Thymus mass, Administration of morphine and compound (thymus): 228 ± 15 mg
